Results taken from patent US7767659B2, “Synthesis of naturally occurring ecteinascidins and related compounds” (Pharma Mar, S.A., priority 2002, dated 2010).
Read-outs that look alike come from different tables or passages of the source.

How the values were obtained:
[1] = system: IGROV-ET; experiment: Inhibition of cells growth by colorimetric assay (SRB); details: Homo sapiens, 48 h
How it was run: (§1)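 Colorimetric SRB read (490 nm) on triplicate wells after 48 h at 37 °C, 5% CO2. Dose range 10 to 10^−8 μg/ml; 5×10^3 cells/well pre-attached 18 h.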

[2] = system: PANC-1; experiment: as above; details: Homo sapiens, PANC-1, 48 h
How it was run: as §1

[3] = system: DU-145; experiment: as above; details: Homo sapiens, DU-145, 48 h
How it was run: as §1

[4] = system: K-562; experiment: as above; details: Homo sapiens, K562, 48 h
How it was run: as §1

[5] = system: SK-BR-3; experiment: as above; details: Homo sapiens, SK-BR-3, 48 h
How it was run: as §1

[6] = system: LNCaP; experiment: as above; details: Homo sapiens, LNCaP, 48 h
How it was run: as §1

[7] = system: IGROV-1; experiment: as above; details: Homo sapiens, IGROV-1, 48 h
How it was run: as §1

[8] = system: SK-MEL-28; experiment: as above; details: Homo sapiens, SK-MEL-28, 48 h
How it was run: as §1

[9] = system: HeLa; experiment: as above; details: Homo sapiens, HeLa, 48 h
How it was run: as §1

[10] = system: HeLa-APL; experiment: as above; details: Homo sapiens, 48 h
How it was run: as §1

[11] = system: LoVo-Dox; experiment: as above; details: Homo sapiens, 48 h
How it was run: as §1

[12] = system: A-549; experiment: cells; details: Homo sapiens, A549, 48 h
How it was run: as §1

[13] = system: HT-29; experiment: cells; details: Homo sapiens, HT-29, 48 h
How it was run: as §1

[14] = system: LoVo; experiment: cells; details: Homo sapiens, LoVo, 48 h
How it was run: as §1

For `COc1c(C)cc2c(c1O)[C@H]1N[C@@H](C2)[C@H](O)N2C1[C@@H]1SC[C@]3(NCCc4c3[nH]c3ccc(O)cc43)C(=O)OC[C@H]2c2c3c(c(C)c(OC(C)=O)c21)OCO3` (stereo partly drawn) [compound 65], the GI50 ([1]; read-out: IGROV-ET GI50) was 76 nM, the CC50 ([1]; read-out: IGROV-ET LC50) was 3300 nM and the IC (TGI) ([1]; read-out: IGROV-ET TGI) was 0.406 µM. For the same compound, the GI50 ([2]; read-out: PANC-1 GI50) was 3.99 nM, the CC50 ([2]; read-out: PANC-1 LC50) was 4.25 µM and the IC (TGI) ([2]; read-out: PANC-1 TGI) was 0.0123 µM. The GI50 ([3]; read-out: DU145 GI50) was 2.63 nM, the CC50 ([3]; read-out: DU145 LC50) was 4.77 µM and the IC (TGI) ([3]; read-out: DU145 TGI) was 0.00645 µM. The GI50 ([4]; read-out: K562 GI50) was 1.22 nM, the CC50 ([4]; read-out: K562 LC50) was 7.8 µM and the IC (TGI) ([4]; read-out: K562 TGI) was 0.0139 µM. The GI50 ([5]; read-out: SK-BR3 GI50) was 2.97 nM, the CC50 ([5]; read-out: SK-BR3 LC50) was 209 nM and the IC (TGI) ([5]; read-out: SK-BR3 TGI) was 0.00766 µM. It also gave a GI50 ([6]; read-out: LNCAP GI50) of 0.875 nM, a CC50 ([6]; read-out: LNCAP LC50) of 6.16 nM and an IC (TGI) ([6]; read-out: LNCAP TGI) of 0.00254 µM. For the same compound, the GI50 ([7]; read-out: IGROV GI50) was 4.07 nM, the CC50 ([7]; read-out: IGROV LC50) was 2990 nM and the IC (TGI) ([7]; read-out: IGROV TGI) was 0.0114 µM. For the same compound, the GI50 ([8]; read-out: MEL-28 GI50) was 3.78 nM, the CC50 ([8]; read-out: MEL-28 LC50) was 42 nM and the IC (TGI) ([8]; read-out: MEL-28 TGI) was 0.0108 µM. For the same compound, the GI50 ([9]; read-out: HELA GI50) was 2.34 nM, the CC50 ([9]; read-out: HELA LC50) was 9.99 nM and the IC (TGI) ([9]; read-out: HELA TGI) was 0.00482 µM. The GI50 ([10]; read-out: HELA-APL GI50) was 2 nM, the CC50 ([10]; read-out: HELA-APL LC50) was 8.46 nM and the IC (TGI) ([10]; read-out: HELA-APL TGI) was 0.0041 µM. For the same compound, the GI50 ([11]; read-out: LOVO-DOX GI50) was 399 nM, the CC50 ([11]; read-out: LOVO-DOX LC50) was 13.2 µM and the IC (TGI) ([11]; read-out: LOVO-DOX TGI) was 1.05 µM. For the same compound, the GI50 ([12]; read-out: A549 GI50) was 22.9 nM, the CC50 ([12]; read-out: A549 LC50) was 313 nM and the IC (TGI) ([12]; read-out: A549 TGI) was 0.056 µM. For the same compound, the GI50 ([13]; read-out: HT29 GI50) was 4.51 nM, the CC50 ([13]; read-out: HT29 LC50) was 13.2 µM and the IC (TGI) ([13]; read-out: HT29 TGI) was 0.196 µM. For the same compound, the GI50 ([14]; read-out: LOVO GI50) was 6.78 nM, the CC50 ([14]; read-out: LOVO LC50) was 2960 nM and the IC (TGI) ([14]; read-out: LOVO TGI) was 0.0369 µM.
`COC1=C(C)C(=O)C2=C(C1=O)[C@@H]1C3[C@@H]4SC[C@]5(NCCc6c5[nH]c5ccccc65)C(=O)OC[C@@H](c5c6c(c(C)c(OC(C)=O)c54)OCO6)N3[C@@H](C#N)[C@H](C2)N1C` (stereo partly drawn) [compound 23] showed a GI50 ([1]; read-out: GI50 IGROV-ET) of 456 nM, a CC50 ([1]; read-out: LC50 IGROV-ET) of 1260 nM and an IC (TGI) ([1]; read-out: TGI IGROV-ET) of 0.76 µM. For the same compound, the GI50 ([2]; read-out: GI50 PANC-1) was 509 nM, the CC50 ([2]; read-out: LC50 PANC-1) was 12.9 µM and the IC (TGI) ([2]; read-out: TGI PANC-1) was 1.26 µM. It also gave a GI50 ([3]; read-out: GI50 DU145) of 58.5 nM, a CC50 ([3]; read-out: LC50 DU145) of 4.45 µM and an IC (TGI) ([3]; read-out: TGI DU145) of 0.143 µM. For the same compound, the GI50 ([4]; read-out: GI50 K562) was 20.3 nM, the CC50 ([4]; read-out: LC50 K562) was 1.4 µM and the IC (TGI) ([4]; read-out: TGI K562) was 0.0733 µM. The GI50 ([5]; read-out: GI50 SK-BR3) was 13.1 nM, the CC50 ([5]; read-out: LC50 SK-BR3) was 645 nM and the IC (TGI) ([5]; read-out: TGI SK-BR3) was 0.0877 µM. The GI50 ([6]; read-out: GI50 LNCAP) was 153 nM, the CC50 ([6]; read-out: LC50 LNCAP) was 657 nM and the IC (TGI) ([6]; read-out: TGI LNCAP) was 0.318 µM. For the same compound, the GI50 ([7]; read-out: GI50 IGROV) was 350 nM, the CC50 ([7]; read-out: LC50 IGROV) was 1130 nM and the IC (TGI) ([7]; read-out: TGI IGROV) was 0.627 µM. For the same compound, the GI50 ([8]; read-out: GI50 MEL-28) was 247 nM, the CC50 ([8]; read-out: LC50 MEL-28) was 857 nM and the IC (TGI) ([8]; read-out: TGI MEL-28) was 0.46 µM. For the same compound, the GI50 ([9]; read-out: GI50 HELA) was 38.2 nM, the CC50 ([9]; read-out: LC50 HELA) was 114 nM and the IC (TGI) ([9]; read-out: TGI HELA) was 0.066 µM. For the same compound, the GI50 ([10]; read-out: GI50 HELA-APL) was 35.6 nM, the CC50 ([10]; read-out: LC50 HELA-APL) was 102 nM and the IC (TGI) ([10]; read-out: TGI HELA-APL) was 0.0603 µM. For the same compound, the GI50 ([11]; read-out: GI50 LOVO-DOX) was 661 nM, the CC50 ([11]; read-out: LC50 LOVO-DOX) was 12.9 µM and the IC (TGI) ([11]; read-out: TGI LOVO-DOX) was 7.46 µM. It also gave a GI50 ([12]; read-out: GI50 A549) of 60.6 nM, a CC50 ([12]; read-out: LC50 A549) of 785 nM and an IC (TGI) ([12]; read-out: TGI A549) of 0.211 µM. For the same compound, the GI50 ([13]; read-out: GI50 HT29) was 51.2 nM, the CC50 ([13]; read-out: LC50 HT29) was 12.9 µM and the IC (TGI) ([13]; read-out: TGI HT29) was 0.215 µM. It also gave a GI50 ([14]; read-out: GI50 LOVO) of 276 nM, a CC50 ([14]; read-out: LC50 LOVO) of 983 nM and an IC (TGI) ([14]; read-out: TGI LOVO) of 0.522 µM.
